From patent US20090240027A1, “INTERMEDIATES FOR MACROCYCLIC COMPOUNDS” (Tranzyme Pharma Inc., priority 2003, published 2009) come the findings set out here.

Chain of human motilin receptor (O43193 whole entry): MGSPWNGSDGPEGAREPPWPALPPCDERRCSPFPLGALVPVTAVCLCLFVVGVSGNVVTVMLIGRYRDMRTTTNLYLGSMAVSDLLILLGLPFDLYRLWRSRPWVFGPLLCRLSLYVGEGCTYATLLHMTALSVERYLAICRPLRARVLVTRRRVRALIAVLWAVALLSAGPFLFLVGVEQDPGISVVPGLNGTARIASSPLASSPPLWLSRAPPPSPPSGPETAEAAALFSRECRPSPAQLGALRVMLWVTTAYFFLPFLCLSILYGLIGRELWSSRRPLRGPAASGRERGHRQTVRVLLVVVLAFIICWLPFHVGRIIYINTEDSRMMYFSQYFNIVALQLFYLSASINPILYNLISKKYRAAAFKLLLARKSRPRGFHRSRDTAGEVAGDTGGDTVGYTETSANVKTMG

One assay deals with human motilin receptor (Homo sapiens, UniProt O43193). As to the kind of experiment: Competitive radioligand binding assay (Method B1). The following applies: Radioligand competitive binding assay, Method B1; values reported as ranges; read-out: Ki (binding activity). More on the design: purchased PerkinElmer 6110544; host or cells: CHO cells, stably transfected (membranes). As for the experimental part:
Competitive Radioligand Binding Assay (Motilin Receptor)
• Membranes were prepared from CHO cells stably transfected with the human motilin receptor and utilized at a quantity of 1.5 μg/assay point.
Final Test Concentrations (N=11) for Compounds:
Compounds were provided frozen on dry ice at a stock concentration of 10 mM diluted in 100% DMSO and stored at −20° C. until the day of testing. On the test day, compounds were allowed to thaw at room temperature and than diluted in assay buffer according to the desired test concentrations. Under these conditions, the maximum final DMSO concentration in the assay was 0.5%.
Plates are sealed with TopSeal-A, vortexed gently and incubated at room temperature for 2 hours. The reaction is arrested by filtering samples through pre-soaked (0.3% polyethyleneimine, 2 h) Multiscreen Harvest plates using a Tomtec® Harvester (Tomtec, Hamden, Conn.)), washed 9 times with 500 μL of cold 50 mM Tris-HCl (pH 7.4), and than plates are air-dried in a fumehood for 30 minutes. A bottom seal is applied to the plates prior to the addition of 25 μL of MicroScint-0™ to each well.
Data are analyzed by GraphPad™ Prism (GraphPad Software, San Diego, Calif.) using a variable slope non-linear regression analysis.
where total and non-specific binding represent the cpm obtained in the absence or presence of 1 μM motilin, respectively.
`CCCC1NC(=O)C(C2CCCCC2)NC(=O)C(Cc2ccc(O)cc2)NCCOc2ccccc2CCCNC1=O` (stereo not shown) [Compound 97]: the Ki (as a rule, a measure of affinity in units of concentration, obtained from inhibition or displacement) is 1 to 10 µM. Turning to `CCCC1NC(=O)C(C(C)C)NC(=O)C(Cc2ccc(O)cc2)NCCCNCCNC1=O` (stereo not shown) [Compound 98], the Ki lay in the range of 1 to 10 µM. On the same count and under the same terms, the result for `CCCC1NC(=O)C(C(C)C)NC(=O)C(Cc2ccc(O)cc2)NCCN(C)CCNC1=O` (stereo not shown) [Compound 99] reads 1 to 10 µM; that for `CC(C)C1NC(=O)C(Cc2ccc(O)cc2)NCCOc2ccccc2CCCNC(=O)C(CCN)NC1=O` (stereo not shown) [Compound 109], 0.1 to 1 µM; that for `CCCC1NC(=O)C(C(C)C)NC(=O)C(Cc2ccc(O)cc2)NCCOc2cccnc2CCCNC1=O` (stereo not shown) [Compound 110], 0.1 to 1 µM. Regarding `CCCC1NC(=O)C(C(C)C)NC(=O)C(Cc2ccccn2)NCCOc2ccccc2CCCNC1=O` (stereo not shown) [Compound 123], the Ki fell in the range of 0.1 to 1 µM. As for `CCCC1NC(=O)C(C(C)C)NC(=O)C(Cc2ccncc2)NCCOc2ccccc2CCCNC1=O` (stereo not shown) [Compound 124], the Ki lay in the range of 0.1 to 1 µM. The same measure, in the same setting: to `CCCC1NC(=O)C(C2CC2)NC(=O)C(Cc2ccc(O)cc2)NCCOc2ccccc2CCCNC1=O` (stereo not shown) [Compound 125] belongs 0.1 to 1 µM; to `CCCC1NC(=O)C(C(C)C)NC(=O)C(Cc2c[nH]cn2)NCc2ccccc2Sc2ccccc2CNC1=O` (stereo not shown) [Compound 127], 0.1 to 1 µM. Turning to `COc1ccc(C[C@H]2NCCOc3ccccc3CCCNC(=O)[C@H](CC(C)C)NC(=O)[C@@H](C(C)C)NC2=O)cc1` [Compound 128], the Ki was 0.1 to 1 µM. Regarding `CC(C)CC1NC(=O)C(C(C)C)NC(=O)C(Cc2cccs2)NCCOc2ccccc2CCCNC1=O` (stereo not shown) [Compound 130], the Ki is 0.1 to 1 µM. `CC(C)C[C@@H]1NC(=O)[C@@H](C(C)C)NC(=O)[C@@H](Cc2cccc(Cl)c2)NCCOc2ccccc2CCCNC1=O` [Compound 131]: the Ki is 0.001 to 0.1 µM. For `CC(C)C[C@@H]1NC(=O)[C@@H](C(C)C)NC(=O)[C@@H](Cc2ccc(Cl)cc2)NCCOc2ccccc2CCCNC1=O` [Compound 132], the Ki fell in the range of 0.001 to 0.1 µM.

Take `CC(C)C[C@@H]1NC(=O)[C@@H](C(C)C)NC(=O)[C@@H](Cc2ccc(F)cc2)NCCOc2ccccc2CCCNC1=O` [Compound 133]: the Ki was 0.001 to 0.1 µM. As for `COc1ccc(CC2NCCOc3cccnc3CCCNC(=O)C(CC(C)C)NC(=O)C(C(C)C)NC2=O)cc1` (stereo not shown) [Compound 135], the Ki was in the range of 0.1 to 1 µM. Consider `CC(C)CC1NC(=O)C(C(C)C)NC(=O)C(Cc2cccc3ccccc23)NCCOc2cccnc2CCCNC1=O` (stereo not shown) [Compound 136], for which the Ki is 0.1 to 1 µM.

Consider `CC(C)CC1NC(=O)C(C(C)C)NC(=O)C(Cc2cccs2)NCCOc2cccnc2CCCNC1=O` (stereo not shown) [Compound 137], for which the Ki fell in the range of 0.1 to 1 µM. The same measure, in the same setting: to `CC(C)CC1NC(=O)C(C(C)C)NC(=O)C(Cc2ccc(Cl)cc2)NCCOc2cccnc2CCCNC1=O` (stereo not shown) [Compound 139] belongs 0.1 to 1 µM; to `CC(C)CC1NC(=O)C(C(C)C)NC(=O)C(Cc2ccc(F)cc2)NCCOc2cccnc2CCCNC1=O` (stereo not shown) [Compound 140], 0.1 to 1 µM. Regarding `COc1ccc(C[C@H]2NCCOc3ccccc3CCCNC(=O)[C@H](CC3CC3)NC(=O)[C@@H](C(C)C)NC2=O)cc1` [Compound 141], the Ki fell in the range of 0.001 to 0.1 µM. On to `CC(C)[C@H]1NC(=O)[C@@H](Cc2ccc(Cl)cc2)NCCOc2ccccc2CCCNC(=O)[C@H](CC2CC2)NC1=O` [Compound 145], for which the Ki was in the range of 0.001 to 0.1 µM.

Take `CC(C)C1NC(=O)C(Cc2ccc(Cl)cc2)NCCOc2cccnc2CCCNC(=O)C(CC2CC2)NC1=O` (stereo not shown) [Compound 150]: the Ki lay in the range of 0.1 to 1 µM.

In the case of `COc1ccc(CC2NCCOc3ccccc3CCCNC(=O)C(CN)NC(=O)C(C(C)C)NC2=O)cc1` (stereo not shown) [Compound 152], the Ki fell in the range of 0.1 to 1 µM.

As to `CC(C)C1NC(=O)C(Cc2cccc3ccccc23)NCCOc2ccccc2CCCNC(=O)C(CN)NC1=O` (stereo not shown) [Compound 153], the Ki lay within 0.1 to 1 µM.

Turning to `CC(C)C1NC(=O)C(Cc2cccs2)NCCOc2ccccc2CCCNC(=O)C(CN)NC1=O` (stereo not shown) [Compound 154], the Ki lay within 0.1 to 1 µM. Still for that read-out and setting: to `CC(C)[C@H]1NC(=O)[C@@H](Cc2cccc(Cl)c2)NCCOc2ccccc2CCCNC(=O)[C@H](CN)NC1=O` [Compound 155] belongs 0.001 to 0.1 µM; to `CC(C)[C@H]1NC(=O)[C@@H](Cc2ccc(Cl)cc2)NCCOc2ccccc2CCCNC(=O)[C@H](CN)NC1=O` [Compound 156], 0.001 to 0.1 µM; to `CC(C)C1NC(=O)C(Cc2ccc(F)cc2)NCCOc2ccccc2CCCNC(=O)C(CN)NC1=O` (stereo not shown) [Compound 157], 0.1 to 1 µM. `CC(C)[C@H]1NC(=O)[C@@H](Cc2cccc(Cl)c2)NCCOc2cccnc2CCCNC(=O)[C@H](CN)NC1=O` [Compound 158]: the Ki lay in the range of 0.001 to 0.1 µM. Still for that read-out and setting: to `CCCC1NC(=O)C(C(C)CC)NC(=O)C(Cc2ccc(O)cc2)NCCOc2ccccc2CCCNC1=O` (stereo not shown) [Compound 159] belongs 0.1 to 1 µM. In the case of `CCCC1NC(=O)C(C(C)CC)NC(=O)C(Cc2ccc(O)cc2)NCCOc2ccccc2CCCNC1=O` (stereo not shown) [Compound 160], the Ki was 0.1 to 1 µM.

Turning to `CCCC1NC(=O)C(C(C)C)NC(=O)C(Cc2ccc(CN)cc2)NCCOc2ccccc2CCCNC1=O` (stereo not shown) [Compound 161], the Ki lay within 0.1 to 1 µM.

With `CCCC1NC(=O)C(C(C)C)NC(=O)C(Cc2ccccc2C)NCCOc2ccccc2CCCNC1=O` (stereo not shown) [Compound 162], the Ki lay in the range of 0.1 to 1 µM. Take `CCC[C@@H]1NC(=O)[C@@H](C(C)C)NC(=O)[C@@H](Cc2cccc(C)c2)NCCOc2ccccc2CCCNC1=O` [Compound 163]: the Ki was in the range of 0.001 to 0.1 µM.

Take `CCC[C@@H]1NC(=O)[C@@H](C(C)C)NC(=O)[C@@H](Cc2ccc(C)cc2)NCCOc2ccccc2CCCNC1=O` [Compound 164]: the inhibitory constant (Ki) was 0.1 to 1 µM.

As for `CCC[C@@H]1NC(=O)[C@@H](C(C)C)NC(=O)[C@@H](Cc2cccc(OC)c2)NCCOc2ccccc2CCCNC1=O` [Compound 165], the Ki was 0.001 to 0.1 µM.

Take `CCCC1NC(=O)C(C(C)C)NC(=O)C(Cc2ccccc2OC)NCCOc2ccccc2CCCNC1=O` (stereo not shown) [Compound 166]: the Ki lay within 0.1 to 1 µM. With `CCCC1NC(=O)C(C(C)C)NC(=O)CC(Cc2cccc(Cl)c2)NCCOc2ccccc2CCCNC1=O` (stereo not shown) [Compound 169], the Ki fell in the range of 0.1 to 1 µM.

Take `CCC[C@@H]1NC(=O)[C@@H](C(C)C)NC(=O)[C@@H](Cc2ccc(Cl)c(Cl)c2)NCCOc2ccccc2CCCNC1=O` [Compound 170]: the Ki fell in the range of 0.001 to 0.1 µM.

`CCC[C@@H]1NC(=O)[C@@H](C(C)C)NC(=O)[C@@H](Cc2ccc(F)c(F)c2)NCCOc2ccccc2CCCNC1=O` [Compound 171]: the Ki is 0.001 to 0.1 µM. Take `CCC[C@@H]1NC(=O)[C@@H](C(C)C)NC(=O)[C@@H](Cc2ccc(OC)c(OC)c2)NCCOc2ccccc2CCCNC1=O` [Compound 172]: the Ki fell in the range of 0.001 to 0.1 µM.

Consider `CCCC1NC(=O)C(C(C)C)NC(=O)C(Cc2ccc(O)cc2)NCCOc2ccccc2CCNC1=O` (stereo not shown) [Compound 177], for which the Ki is 0.1 to 1 µM. Consider `COc1ccc(CC2NCCOc3ccccc3CCCNC(=O)C(CO)NC(=O)C(C(C)C)NC2=O)cc1` (stereo not shown) [Compound 178], for which the Ki was in the range of 0.1 to 1 µM. For the compound `CC(C)C1NC(=O)C(Cc2cccc3ccccc23)NCCOc2ccccc2CCCNC(=O)C(CO)NC1=O` (stereo not shown) [Compound 179], the Ki fell in the range of 0.1 to 1 µM.

Staying with this assay, now noted: result in words; linear analogue of compound 1.
As for `CCC[C@H](NC(=O)[C@H](NC(=O)[C@@H](Cc1ccc(O)cc1)NCCOc1ccccc1/C=C/CNC(C)=O)C(C)C)C(N)=O` [Compound 121], the Binding activity result is given as “lack of binding activity”.

The target of another assay is T1, motilin receptor (Oryctolagus cuniculus, UniProt G1T803).
T1 construct: Duodenal segments were vertically suspended in organ chambers; from tissue; host or cells: rabbit duodenum segments
T1 sequence (G1T803 1-400): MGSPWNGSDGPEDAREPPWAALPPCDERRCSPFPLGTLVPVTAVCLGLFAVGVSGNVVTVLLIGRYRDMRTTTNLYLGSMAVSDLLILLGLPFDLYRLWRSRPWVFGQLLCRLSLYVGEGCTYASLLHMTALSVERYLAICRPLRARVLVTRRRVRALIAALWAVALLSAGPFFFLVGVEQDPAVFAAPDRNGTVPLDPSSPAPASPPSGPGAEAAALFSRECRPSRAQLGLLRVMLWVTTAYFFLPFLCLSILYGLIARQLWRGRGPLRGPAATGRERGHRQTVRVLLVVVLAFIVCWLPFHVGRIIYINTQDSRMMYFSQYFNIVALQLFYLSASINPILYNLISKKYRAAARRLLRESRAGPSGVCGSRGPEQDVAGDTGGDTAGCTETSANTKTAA
The assay can be described thus: Rabbit duodenum contractility assay (Method B4).
Settings: not given
The method, then: Compounds of the present invention have shown significant antagonist activity in this assay.
Rabbit Duodenum Contractility Assay
Duodenal segments were vertically suspended in organ chambers of 10 mL filled with Krebs buffer and connected to an isotonic force transducer, with a preload of 1 g. After a stabilization period, the muscle strips were challenged with 10^−4 M acetylcholine and washed. This was repeated until a stable maximal contraction was obtained (2-3 times), with an interval of at least 20 minutes.
After a stable base line was reached, test compounds were added to the bath. After 15 min incubation, a dose response to motilin was recorded by adding logarithmically increasing concentrations of motilin to the bath (final concentration 10^−9 to 10^−6 M). A blank experiment (no test compound present) was also performed. At the end of the dose response curve, a supramaximal dose of acetylcholine (10^−4 M) was given and this response was used as a reference (100% contraction).
The results of experiments at different concentrations of test compound were combined and analyzed to derive the pA2 value from the Schild plot.
In the case of `CCC[C@@H]1NC(=O)[C@@H](C(C)C)NC(=O)[C@@H](Cc2cccc(OC)c2)NCCOc2ccccc2CCCNC1=O` [Compound 165], the Kb is 0.0676 µM.
